# Data from patent publication US12414952B2 (Merck Sharp & Dohme LLC, priority 2018, dated 2025).
# Legend:
# [1] = biological target: human A2a adenosine receptor (Homo sapiens (Human), UniProt P29274); assay: A2a binding affinity using radioligand binding, Method (A); conditions: Method (A): [3H]SCH58261 filtration binding
# Excerpt: The A2a receptor affinity binding assay measured the amount of binding of a tritiated ligand with high affinity for the A2a adenosine receptor to membranes made from HEK293 or CHO cells recombinantly expressing the human A2a adenosine receptor, in the presence of varying concentrations of a compound of the invention. The data were generated using either filtration binding or a homogenous scintillation proximity assay (SPA).
# Method (A): Measurement of A2a Binding Affinity Using Radioligand Binding
# 148 μL (5 μg/mL) membranes (Perkin Elmer, Cat. No. RBHA2aM400UA) and 2 μL compounds of the invention to be tested (test compound) were transferred to individual wells of a 96-well polypropylene assay plate and incubated for 15 to 30 min at room temperature. [^3H] SCH58261 ((7-(2-phenylethyl)-5-amino-2-(2-furyl)-pyrazolo-[4,3-e]-1,2,4-triazolo[1,5-c]pyrimidine)) was diluted in assay buffer (50 mM Tris pH 7.4, 10 mM MgCl2, 0.005% Tween20) to a concentration of 4 nM and 50 μL transferred to each well of the assay plate. […] The assay plate was incubated at room temperature for 60 min with agitation. […] Filtering was achieved by aspirating the contents of the assay plate for 5 sec, then washing and aspirating the contents three times with ice-cooled wash buffer (50 mM Tris-HCl pH 7.4, 150 mM NaCl) and allowing the vacuum manifold to dry the plate for […]. The filter plate was incubated for at least 1 h at 55° C. and allowed to dry. The bottom of the filter plate was sealed with backing tape. […] The plate was incubated for at least 20 min, and then the amount of radioactivity remaining in each well was determined using a TopCount® (Perkin Elmer) scintillation counter. After normalization to total and non-specific binding, the percent effect at each compound concentration was calculated. The plot of percent effect versus the log of compound concentration was analyzed electronically using a 4-parameter logistic fit based on the Levenberg-Marquardt algorithm to generate IC50 values.
# [2] = biological target: human A2b adenosine receptor (Homo sapiens (Human), UniProt P29275); assay: A2b binding affinity, radioligand filtration binding assay; conditions: tritiated proprietary A2b antagonist, HEK293 membranes
# Sequence of human A2b adenosine receptor (P29275 whole entry): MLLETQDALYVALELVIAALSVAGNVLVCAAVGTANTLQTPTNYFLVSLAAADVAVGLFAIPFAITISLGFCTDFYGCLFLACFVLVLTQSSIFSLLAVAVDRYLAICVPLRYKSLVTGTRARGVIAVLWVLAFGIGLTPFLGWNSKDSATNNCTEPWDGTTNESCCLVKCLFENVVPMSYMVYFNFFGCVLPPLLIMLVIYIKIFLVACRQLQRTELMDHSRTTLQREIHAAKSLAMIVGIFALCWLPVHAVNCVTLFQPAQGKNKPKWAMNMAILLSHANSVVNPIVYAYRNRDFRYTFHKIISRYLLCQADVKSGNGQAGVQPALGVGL
# Experimental: Measurement of A2b Binding Affinity
# The reported affinity of the compounds of the invention for the human A2b adenosine receptor was determined experimentally using a radioligand filtration binding assay. This assay measures the amount of binding of a tritiated proprietary A2b receptor antagonist, in the presence and absence of a compound of the invention, to membranes made from HEK293 cells recombinantly expressing the human A2b adenosine receptor (Perkin Elmer, Cat. No. ES-013-C).
# The filter plate was incubated for at least 1 h at 55° C. and allowed to dry. The bottom of the filter plate was then sealed with backing tape. […] The plates were then incubated for at least 20 min, and then the amount of radioactivity remaining in each well was determined using a TopCount® (Perkin Elmer) scintillation counter. After normalization to total and non-specific binding, the percent effect at each compound concentration was calculated. The plot of percent effect versus the log of compound concentration was analyzed electronically using a 4-parameter logistic fit based on the Levenberg-Marquardt algorithm to generate IC50 values.
# Sequence of human A2a adenosine receptor (P29274 whole entry): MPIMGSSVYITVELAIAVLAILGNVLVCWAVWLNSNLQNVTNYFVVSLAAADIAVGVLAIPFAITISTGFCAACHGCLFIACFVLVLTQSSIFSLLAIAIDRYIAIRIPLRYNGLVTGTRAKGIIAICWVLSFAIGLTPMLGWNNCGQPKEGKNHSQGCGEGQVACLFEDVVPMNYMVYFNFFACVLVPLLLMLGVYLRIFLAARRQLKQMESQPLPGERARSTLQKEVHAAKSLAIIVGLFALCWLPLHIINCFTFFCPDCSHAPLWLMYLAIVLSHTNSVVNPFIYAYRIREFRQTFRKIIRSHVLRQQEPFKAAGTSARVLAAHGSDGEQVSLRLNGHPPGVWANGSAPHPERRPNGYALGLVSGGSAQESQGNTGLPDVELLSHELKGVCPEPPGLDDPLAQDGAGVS
IC50 [1] [nM],IC50 [2] [nM],SMILES
2.2,32,"Cc1c(-c2ncco2)nc(N)n2nc(CCN3CCc4c(nnn4C45CC(C4)C5)C3)nc12 [Example 17.15, 2-(2-(1-(bicyclo[1.1.1]pentan-1-yl)-1,4,6,7-tetrahydro-5H-[1,2,3]triazolo[4,5-c]pyridin-5-yl)ethyl)-8-methyl-7-(oxazol-2-yl)-[1,2,4]triazolo[1,5-c]pyrimidin-5-amine]"
4.1,97,"Cc1c(-c2ncco2)nc(N)n2nc(CCN3CCc4nn(C5CC(F)(F)C5)cc4C3)nc12 [Example 17.9, 2-(2-(2-(3,3-difluorocyclobutyl)-2,4,6,7-tetrahydro-5H-pyrazolo[4,3-c]pyridin-5-yl)ethyl)-8-methyl-7-(oxazol-2-yl)-[1,2,4]triazolo[1,5-c]pyrimidin-5-amine]"
0.4,14.5,"Cc1c(-c2ncco2)nc(N)n2nc(CN3CCc4cccnc43)nc12 [Example 10.3, 2-((2,3-dihydro-1H-pyrrolo[2,3-b]pyridin-1-yl)methyl)-8-methyl-7-(oxazol-2-yl)-[1,2,4]triazolo[1,5-c]pyrimidin-5-amine]"
0.6,20.6,"Cc1c(-c2ncco2)nc(N)n2nc(CCN3CCc4c(cnn4C4CC(F)(F)C4)C3)nc12 [Example 17.10, 2-(2-(1-(3,3-difluorocyclobutyl)-1,4,6,7-tetrahydro-5H-pyrazolo[4,3-c]pyridin-5-yl)ethyl)-8-methyl-7-(oxazol-2-yl)-[1,2,4]triazolo[1,5-c]pyrimidin-5-amine]"
4.5,48.4,"Cc1c(-c2ncco2)nc(N)n2nc(CNCc3ccc(C(F)(F)F)cc3)nc12 [Example 10.2, 8-methyl-7-(oxazol-2-yl)-2-(((4-(trifluoromethyl)benzyl)amino)methyl)-[1,2,4]triazolo[1,5-c]pyrimidin-5-amine]"
0.5,2.6,"Cc1c(-c2ncco2)nc(N)n2nc(Cc3ccn(C)n3)nc12 [Example 7.6, 8-methyl-2-((1-methyl-1H-pyrazol-3-yl)methyl)-7-(oxazol-2-yl)-[1,2,4]triazolo[1,5-c]pyrimidin-5-amine]"
7.3,151,"Cc1c(-c2ncco2)nc(N)n2nc(CCS(=O)(=O)C3CC3)nc12 [Example 15.3, 2-(2-(cyclopropylsulfonyl)ethyl)-8-methyl-7-(oxazol-2-yl)-[1,2,4]triazolo[1,5-c]pyrimidin-5-amine]"
0.7,1990,Cc1c(-c2ncco2)nc(N)n2nc(CN(Cc3ccc(C(F)(F)F)cc3)CC(F)F)nc12 [Example 12.3]
163,157,"Cc1c(-c2cccc(F)c2)nc(N)n2nc(CNCc3ccc(C(F)(F)F)cc3)nc12 [Example 10.5, 7-(3-fluorophenyl)-8-methyl-2-(((4-(trifluoromethyl)benzyl)amino)methyl)-[1,2,4]triazolo[1,5-c]pyrimidin-5-amine]"
15.5,40.6,"Cc1c(-c2ncco2)nc(N)n2nc(CNCc3ccc(C(C)(C)O)cn3)nc12 [Example 11.3, 2-(6-((((5-amino-8-methyl-7-(oxazol-2-yl)-[1,2,4]triazolo[1,5-c]pyrimidin-2-yl)methyl)amino)methyl)pyridin-3-yl)propan-2-ol]"
38.7,5,"Cc1c(-c2ncco2)nc(N)n2nc(Cc3ccc(C(C)(C)O)cc3)nc12 [Example 6.5, 2-(4-((5-amino-8-methyl-7-(oxazol-2-yl)-[1,2,4]triazolo[1,5-c]pyrimidin-2-yl)methyl)phenyl)propan-2-ol]"
13.5,117,"Nc1nc(-c2cc(F)ccc2F)c(C2CC2)n2nc(Cc3ccccc3)nc12 [Example 20.5, 2-benzyl-5-cyclopropyl-6-(2,5-difluorophenyl)-[1,2,4]triazolo[1,5-a]pyrazin-8-amine]"
1.9,243,"Cc1c(-c2ncco2)nc(N)n2nc(Cc3cccc(C(C)(C)O)c3)nc12 [Example 6.6, 2-(3-((5-amino-8-methyl-7-(oxazol-2-yl)-[1,2,4]triazolo[1,5-c]pyrimidin-2-yl)methyl)phenyl)propan-2-ol]"
19.3,453,"Cc1c(-c2cccc(F)c2)nc(N)n2nc(CCS(=O)(=O)C3CC3)nc12 [Example 16.2, 2-(2-(cyclopropylsulfonyl)ethyl)-7-(3-fluorophenyl)-8-methyl-[1,2,4]triazolo[1,5-c]pyrimidin-5-amine]"

# The remaining lines, values behind:
SMILES,IC50 [1] [nM],IC50 [2] [nM]
"Cc1c(-c2ncco2)nc(N)n2nc(CCN3Cc4nnn(C(C)C)c4C(C)C3)nc12 (single isomer, unassigned) [Example 17.8-2, (R or S)-2-(2-(1-isopropyl-7-methyl-1,4,6,7-tetrahydro-5H-[1,2,3]triazolo[4,5-c]pyridin-5-yl)ethyl)-8-methyl-7-(oxazol-2-yl)-[1,2,4]triazolo[1,5-c]pyrimidin-5-amine]",2.3,14
Cc1c(-c2cccc(Cl)c2)nc(N)c2nc(Cc3ccccc3)nn12 [Example 3.23],2.7,13.6
Cc1c(-c2cc(F)c(F)c(F)c2)nc(N)c2nc(Cc3ccccc3)nn12 [Example 3.36],76.5,154
Cc1c(-c2ncco2)nc(N)n2nc(CCN3CCc4c(nnn4C(C)C)C3)nc12 [Example 1.15],0.1,402
Cc1c(-c2ncco2)nc(N)n2nc(CCN3CCn4c(cnc4C4CC4)C3)nc12 [Example 1.12],4.8,218
Cc1c(-c2cc(F)ccc2F)nc(N)c2nc(Cc3ccc(F)cn3)nn12 [Example 4.4],22.8,26
Cc1c(-c2ncco2)nc(N)n2nc(CCN3CCc4c(nnn4CC(F)(F)F)C3)nc12 [Example 1.17],1.3,35.2
Cc1c(-c2cccc(F)c2F)nc(N)c2nc(Cc3ccccc3)nn12 [Example 3.29],4,39.4
Cc1c(-c2cc(F)cc(Cl)c2)nc(N)c2nc(Cc3ccccc3)nn12 [Example 3.28],2.9,34.4
Cc1c(-c2cc(F)ccc2Cl)nc(N)c2nc(Cc3ccccc3)nn12 [Example 3.38],97.6,85.7
CC(C)n1nnc2c1CCN(CCc1nc3cc(-c4cccc(C#N)c4F)nc(N)n3n1)C2 [Example 2.24],0.9,73.6
"Cc1c(-c2ncco2)nc(N)n2nc(Cc3ccc([C@H]4C[C@@](C)(O)C4)cc3)nc12 [Example 5.2, (1s,3s)-3-(4-((5-amino-8-methyl-7-(oxazol-2-yl)-[1,2,4]triazolo[1,5-c]pyrimidin-2-yl)methyl)phenyl)-1-methylcyclobutanol]",2.5,1.6
COc1ccc(F)cc1-c1nc(N)c2nc(Cc3ccccc3)nn2c1C [Example 3.43],611,2520
CC(C)c1ncc2n1CCN(CCc1nc3cc(-c4cc(F)cc(F)c4)nc(N)n3n1)C2 [Example 2.14],362,223
Cc1c(-c2cccc(F)c2)nc(N)c2nc(CCN3CCn4c(cnc4C(C)C)C3)nn12 [Example 2.8],160,48.1
Cc1c(-c2cccc(F)c2)nc(N)n2nc(CCN3CCn4c(cnc4C(C)C)C3)nc12 [Example 2.15],16.4,36.8
CC(C)c1ncc2n1CCN(CCc1nc3cc(-c4cc(F)ccc4Cl)nc(N)n3n1)C2 [Example 2.12],440,215
